Source: ChEMBL document CHEMBL1131602 (J Med Chem, 1998)

Columns and labels:
[1] = molecular target: T1, Bifunctional dihydrofolate reductase-thymidylate synthase (Plasmodium falciparum K1, UniProt P13922); assay: Inhibitory activity against mutant Plasmodium falciparum DHFR-TS
Target sequence in this assay (P13922 whole entry, looked up): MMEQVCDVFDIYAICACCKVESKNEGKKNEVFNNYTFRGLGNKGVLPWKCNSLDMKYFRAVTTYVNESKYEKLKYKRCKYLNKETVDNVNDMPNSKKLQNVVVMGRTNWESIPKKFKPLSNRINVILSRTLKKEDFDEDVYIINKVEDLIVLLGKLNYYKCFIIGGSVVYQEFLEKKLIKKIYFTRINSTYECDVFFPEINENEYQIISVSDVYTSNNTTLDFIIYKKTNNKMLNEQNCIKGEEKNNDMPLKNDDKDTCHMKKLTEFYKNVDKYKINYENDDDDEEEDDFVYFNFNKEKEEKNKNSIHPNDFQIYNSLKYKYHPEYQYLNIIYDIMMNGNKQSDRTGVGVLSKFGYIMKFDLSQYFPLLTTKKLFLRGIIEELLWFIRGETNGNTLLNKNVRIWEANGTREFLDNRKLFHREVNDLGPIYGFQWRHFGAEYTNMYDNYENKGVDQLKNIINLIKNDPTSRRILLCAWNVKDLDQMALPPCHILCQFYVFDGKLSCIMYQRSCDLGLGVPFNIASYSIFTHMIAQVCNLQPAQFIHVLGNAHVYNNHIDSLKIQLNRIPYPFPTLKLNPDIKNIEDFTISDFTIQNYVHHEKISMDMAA

[2] = molecular target: T1, Bifunctional dihydrofolate reductase-thymidylate synthase; assay: Binding affinity was evaluated as inhibition of mutant (C59R + S108N) Plasmodium falciparum DHFR-TS.
Target sequence in this assay (P13922 whole entry): as the sequence (P13922 whole entry, looked up) above

[3] = tested on: Plasmodium falciparum; assay: In vitro inhibition of Plasmodium falciparum HB3 (S108N) culture; format: functional, organism-based
[4] = molecular target: T1, Bifunctional dihydrofolate reductase-thymidylate synthase; assay: Binding affinity was evaluated as inhibition of recombinant wild type (WT) Plasmodium falciparum DHFR-TS.
Target sequence in this assay (P13922 whole entry): as the sequence (P13922 whole entry, looked up) above

[5] = tested on: Plasmodium falciparum; assay: In vitro inhibition of Plasmodium falciparum K1 (S108N + C59R) culture; format: functional, organism-based
[6] = molecular target: T1, Bifunctional dihydrofolate reductase-thymidylate synthase; assay: Inhibitory activity against recombinant wild type (WT) Plasmodium falciparum DHFR-TS
Target sequence in this assay (P13922 whole entry): as the sequence (P13922 whole entry, looked up) above

[7] = Ratio of inhibitions against mutant and wild type (WT) Plasmodium falciparum DHFR-TS.

Row | Structure (SMILES) | IC50 [1] [nM] | Ki [1] [nM] | Ki [2] [nM] | IC50 [3] [nM] | Ki [4] [nM] | IC50 [5] [nM] | IC50 [6] [nM] | Ratio [7]
1 | CCc1nc(N)nc(N)c1-c1cccc(OC)c1 | 73 | 14 | 14 | 0.2 | 1.07 | 3.7 | 9.3 | 13.1
2 | CC1(C)N=C(N)N=C(N)N1c1ccc(Cl)cc1 [CYCLOGUANIL] | – | – | 82.1 | – | 2.6 | – | – | 31.5
3 | CCc1nc(N)nc(N)c1-c1cccc(Cl)c1 | 12.7 | – | 2.4 | – | 0.3 | – | 2.7 | 8
4 | NC(=O)c1ccc[n+]([C@H]2O[C@@H](COP(=O)([O-])OP(=O)(O)OC[C@H]3O[C@@H](n4cnc5c(N)ncnc54)[C@H](OP(=O)(O)O)[C@@H]3O)[C@H](O)[C@@H]2O)c1 [NICOTINAMIDE ADENINE DINUCLEOTIDE PHOSPHATE] | – | – | 14.5 | – | 4.7 | – | – | 3.09
5 | CCc1nc(N)nc(N)c1-c1ccc(Cl)cc1 [PYRIMETHAMINE] | – | – | – | 1.2 | – | 10.2 | – | –
